# Reference: patent US10709758B2 (priority 2015, dated 2020)
# Residues, ends and D or L forms follow the SMILES beside them.
# Legend:
# [1] = tested on: TcdB
# [2] = target: TcdB1 (Clostridioides difficile, UniProt P18177)
# [3] = tested on: TcdB2
# [4] = tested on: CHO-K1 cells; assay type: cell-based
# [5] = target: TcdB (Clostridioides difficile, UniProt P18177); details: cited from earlier work
# Chain of TcdB (Clostridioides difficile, UniProt P18177) (P18177 whole entry, looked up): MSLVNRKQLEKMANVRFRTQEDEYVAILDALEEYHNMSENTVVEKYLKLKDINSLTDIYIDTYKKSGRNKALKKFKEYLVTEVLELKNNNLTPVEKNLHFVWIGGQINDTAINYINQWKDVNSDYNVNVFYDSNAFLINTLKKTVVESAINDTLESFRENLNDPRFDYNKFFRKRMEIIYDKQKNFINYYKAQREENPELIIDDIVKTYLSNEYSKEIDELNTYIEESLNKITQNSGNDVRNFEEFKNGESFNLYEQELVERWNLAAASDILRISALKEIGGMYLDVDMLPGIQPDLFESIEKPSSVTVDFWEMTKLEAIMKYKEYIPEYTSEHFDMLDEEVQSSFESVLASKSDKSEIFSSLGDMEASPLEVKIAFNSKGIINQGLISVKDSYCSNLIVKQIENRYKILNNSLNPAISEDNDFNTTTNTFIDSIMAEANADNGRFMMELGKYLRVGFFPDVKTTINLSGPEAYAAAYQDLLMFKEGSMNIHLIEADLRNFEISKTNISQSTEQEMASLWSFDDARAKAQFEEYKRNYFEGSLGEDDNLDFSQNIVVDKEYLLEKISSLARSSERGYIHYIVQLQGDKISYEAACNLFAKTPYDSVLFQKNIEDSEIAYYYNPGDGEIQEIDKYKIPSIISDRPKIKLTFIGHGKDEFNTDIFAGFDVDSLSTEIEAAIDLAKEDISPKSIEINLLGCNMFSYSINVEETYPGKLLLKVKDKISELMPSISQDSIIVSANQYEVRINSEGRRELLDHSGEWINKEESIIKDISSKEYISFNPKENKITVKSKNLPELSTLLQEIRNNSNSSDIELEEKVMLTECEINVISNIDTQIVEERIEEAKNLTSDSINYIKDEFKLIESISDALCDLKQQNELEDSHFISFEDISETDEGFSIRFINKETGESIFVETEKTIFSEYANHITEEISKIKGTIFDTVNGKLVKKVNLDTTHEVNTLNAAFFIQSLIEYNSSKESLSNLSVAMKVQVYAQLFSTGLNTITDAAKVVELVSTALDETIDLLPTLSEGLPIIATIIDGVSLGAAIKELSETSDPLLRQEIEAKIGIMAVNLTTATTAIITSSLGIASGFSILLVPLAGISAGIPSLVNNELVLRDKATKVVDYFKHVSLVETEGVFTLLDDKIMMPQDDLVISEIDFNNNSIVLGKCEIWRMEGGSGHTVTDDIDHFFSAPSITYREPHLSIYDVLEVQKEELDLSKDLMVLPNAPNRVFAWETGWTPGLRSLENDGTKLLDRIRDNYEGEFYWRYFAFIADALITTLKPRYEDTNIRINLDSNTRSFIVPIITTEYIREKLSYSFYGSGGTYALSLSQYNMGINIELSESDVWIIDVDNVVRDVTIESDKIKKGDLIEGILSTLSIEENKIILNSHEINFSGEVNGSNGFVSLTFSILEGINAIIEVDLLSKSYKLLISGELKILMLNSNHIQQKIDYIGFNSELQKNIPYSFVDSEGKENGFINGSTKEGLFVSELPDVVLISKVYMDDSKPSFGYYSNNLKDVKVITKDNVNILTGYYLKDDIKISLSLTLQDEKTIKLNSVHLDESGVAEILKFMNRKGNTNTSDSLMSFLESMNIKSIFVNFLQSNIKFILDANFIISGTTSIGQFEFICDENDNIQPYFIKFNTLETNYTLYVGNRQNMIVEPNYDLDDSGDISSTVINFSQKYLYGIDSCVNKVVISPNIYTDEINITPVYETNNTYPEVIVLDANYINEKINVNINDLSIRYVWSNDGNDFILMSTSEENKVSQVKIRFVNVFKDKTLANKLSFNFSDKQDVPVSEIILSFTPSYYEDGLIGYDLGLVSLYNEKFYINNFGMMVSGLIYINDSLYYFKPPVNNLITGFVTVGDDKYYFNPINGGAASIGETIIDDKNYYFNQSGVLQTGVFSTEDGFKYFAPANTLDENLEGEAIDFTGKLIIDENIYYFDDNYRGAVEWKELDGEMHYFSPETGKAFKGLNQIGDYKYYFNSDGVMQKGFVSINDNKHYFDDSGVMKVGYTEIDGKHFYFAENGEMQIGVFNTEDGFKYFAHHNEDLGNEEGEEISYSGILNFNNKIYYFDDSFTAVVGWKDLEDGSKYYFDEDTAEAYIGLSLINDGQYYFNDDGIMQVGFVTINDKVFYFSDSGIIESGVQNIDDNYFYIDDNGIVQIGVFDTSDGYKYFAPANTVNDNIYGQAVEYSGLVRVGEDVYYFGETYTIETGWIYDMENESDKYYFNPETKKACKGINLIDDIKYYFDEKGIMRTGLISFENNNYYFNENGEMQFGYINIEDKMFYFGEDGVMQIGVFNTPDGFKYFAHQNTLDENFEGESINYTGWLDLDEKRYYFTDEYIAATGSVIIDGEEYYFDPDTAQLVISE
# Chain of TcdB1 (P18177 2-2366 limits assumed): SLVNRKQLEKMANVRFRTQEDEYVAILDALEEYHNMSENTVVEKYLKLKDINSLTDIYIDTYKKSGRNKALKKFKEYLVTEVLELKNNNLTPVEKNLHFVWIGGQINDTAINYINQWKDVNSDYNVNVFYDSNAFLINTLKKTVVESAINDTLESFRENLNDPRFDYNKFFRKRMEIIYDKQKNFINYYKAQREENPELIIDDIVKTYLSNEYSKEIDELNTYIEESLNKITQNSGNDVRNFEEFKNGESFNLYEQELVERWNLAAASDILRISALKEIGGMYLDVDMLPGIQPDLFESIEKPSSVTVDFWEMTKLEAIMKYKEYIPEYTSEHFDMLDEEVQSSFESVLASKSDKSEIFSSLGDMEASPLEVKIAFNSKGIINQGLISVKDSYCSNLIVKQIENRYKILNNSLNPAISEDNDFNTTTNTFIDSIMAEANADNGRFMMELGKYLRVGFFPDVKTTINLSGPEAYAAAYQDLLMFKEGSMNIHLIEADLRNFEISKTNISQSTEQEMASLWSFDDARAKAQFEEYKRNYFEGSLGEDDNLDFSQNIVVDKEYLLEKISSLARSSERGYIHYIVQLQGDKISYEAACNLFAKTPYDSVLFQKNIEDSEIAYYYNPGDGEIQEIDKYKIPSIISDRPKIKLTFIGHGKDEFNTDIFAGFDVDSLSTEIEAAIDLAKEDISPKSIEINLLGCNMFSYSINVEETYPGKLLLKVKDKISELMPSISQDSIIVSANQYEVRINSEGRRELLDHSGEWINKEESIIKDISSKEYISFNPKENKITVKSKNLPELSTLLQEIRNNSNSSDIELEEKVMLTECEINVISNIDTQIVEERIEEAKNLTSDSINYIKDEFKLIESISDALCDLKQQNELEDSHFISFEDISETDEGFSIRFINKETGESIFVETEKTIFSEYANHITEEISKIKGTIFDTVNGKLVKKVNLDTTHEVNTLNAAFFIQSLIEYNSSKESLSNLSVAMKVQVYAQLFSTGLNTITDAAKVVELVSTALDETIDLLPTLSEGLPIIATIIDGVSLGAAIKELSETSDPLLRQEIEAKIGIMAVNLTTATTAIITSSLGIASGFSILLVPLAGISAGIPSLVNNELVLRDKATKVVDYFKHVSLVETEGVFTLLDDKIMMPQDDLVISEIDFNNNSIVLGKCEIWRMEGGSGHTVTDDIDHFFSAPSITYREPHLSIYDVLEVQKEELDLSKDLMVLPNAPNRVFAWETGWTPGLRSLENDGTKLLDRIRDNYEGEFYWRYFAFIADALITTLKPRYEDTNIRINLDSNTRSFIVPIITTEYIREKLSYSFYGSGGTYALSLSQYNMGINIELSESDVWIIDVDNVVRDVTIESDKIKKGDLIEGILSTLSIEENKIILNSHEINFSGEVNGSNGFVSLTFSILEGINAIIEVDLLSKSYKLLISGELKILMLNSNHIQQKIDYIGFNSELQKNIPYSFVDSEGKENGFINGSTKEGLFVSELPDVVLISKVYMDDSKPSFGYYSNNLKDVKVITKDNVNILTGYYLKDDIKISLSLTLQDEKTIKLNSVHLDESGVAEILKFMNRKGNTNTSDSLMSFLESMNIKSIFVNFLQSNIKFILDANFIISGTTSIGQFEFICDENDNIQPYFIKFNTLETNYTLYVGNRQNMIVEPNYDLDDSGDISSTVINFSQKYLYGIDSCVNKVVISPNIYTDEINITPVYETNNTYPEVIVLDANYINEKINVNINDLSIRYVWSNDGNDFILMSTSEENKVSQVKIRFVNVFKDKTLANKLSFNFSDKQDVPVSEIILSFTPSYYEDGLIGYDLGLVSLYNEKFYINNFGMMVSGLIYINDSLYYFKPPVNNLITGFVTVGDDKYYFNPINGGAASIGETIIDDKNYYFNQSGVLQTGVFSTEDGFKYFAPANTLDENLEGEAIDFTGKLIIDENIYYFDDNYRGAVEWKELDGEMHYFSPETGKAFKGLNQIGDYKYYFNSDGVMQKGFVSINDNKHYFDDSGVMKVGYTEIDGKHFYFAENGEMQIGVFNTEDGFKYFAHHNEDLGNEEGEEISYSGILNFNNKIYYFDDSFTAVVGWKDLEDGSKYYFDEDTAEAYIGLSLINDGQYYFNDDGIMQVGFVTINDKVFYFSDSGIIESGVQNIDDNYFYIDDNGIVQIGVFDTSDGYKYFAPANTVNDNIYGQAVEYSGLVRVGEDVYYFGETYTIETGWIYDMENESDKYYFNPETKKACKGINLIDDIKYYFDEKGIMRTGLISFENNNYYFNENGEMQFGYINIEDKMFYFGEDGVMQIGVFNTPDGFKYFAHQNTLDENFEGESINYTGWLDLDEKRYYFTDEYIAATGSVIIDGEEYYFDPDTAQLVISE
compound,measurement,setting,value
"CC(C)[C@H](NC(=O)[C@H](CCCCN)NC(=O)[C@H](CCCNC(=N)N)NC(=O)[C@H](CCCCN)NC(=O)[C@H](CCCCN)NC(=O)[C@H](CCCCN)NC(=O)[C@@H]1CCCN1C(=O)[C@H](CCC(N)=O)NC(=O)[C@H](CO)NC(=O)[C@H](Cc1c[nH]c2ccccc12)NC(=O)[C@H](CCC(=O)O)NC(=O)[C@@H](NC(=O)[C@H](Cc1c[nH]c2ccccc12)NC(=O)[C@H](Cc1c[nH]c2ccccc12)NC(=O)[C@@H](NC(=O)[C@H](CCC(=O)O)NC(=O)[C@H](Cc1c[nH]c2ccccc12)NC(=O)[C@H](Cc1c[nH]c2ccccc12)NC(=O)[C@@H](NC(=O)[C@H](CCC(=O)O)NC(=O)[C@@H](N)CCCCN)[C@@H](C)O)[C@@H](C)O)[C@@H](C)O)C(=O)O [Pep-1, reference compound] (H-KETWWETWWTEWSQPKKKRKV-OH)",effect of known CPPs on the cytotoxicity of TcdB,[1],did not appear to alter TcdB cytotoxicity
CC(C)C[C@H](NC(=O)[C@H](CCCCN)NC(=O)[C@H](CC(N)=O)NC(=O)[C@H](C)NC(=O)[C@H](CC(C)C)NC(=O)[C@@H](NC(=O)[C@H](CCCCN)NC(=O)[C@H](CC(=O)O)NC(=O)[C@H](CCCCN)NC(=O)[C@H](Cc1ccccc1)NC(=O)[C@@H](NC(=O)[C@@H](N)CC(N)=O)C(C)C)[C@@H](C)O)C(=O)N[C@@H](CO)C(=O)N[C@@H](Cc1ccccc1)C(=O)N[C@@H](CC(N)=O)C(=O)N[C@@H](Cc1ccccc1)C(=O)N[C@@H](CO)C(=O)N[C@@H](CC(=O)O)C(=O)N[C@@H](CCCCN)C(=O)O [PepB1] (H-NVFKDKTLANKLSFNFSDK-OH),protection from cytotoxicity of TcdB1 over a range of toxin concentrations,[2],did not inhibit the cytotoxicity
same,protection from cytotoxicity of TcdB2 over a range of toxin concentrations,[3],did not inhibit the cytotoxicity
CC[C@H](C)[C@H](NC(=O)[C@H](CCCCN)NC(=O)[C@H](CC(=O)O)NC(=O)[C@H](CO)NC(=O)[C@@H](NC(=O)[C@@H](NC(=O)[C@H](CC(N)=O)NC(=O)CNC(=O)[C@H](CCCCN)NC(=O)[C@H](Cc1ccccc1)NC(=O)[C@@H](NC(=O)[C@@H](N)CC(N)=O)C(C)C)[C@@H](C)O)[C@@H](C)CC)C(=O)N[C@@H](CO)C(=O)N[C@@H](Cc1ccccc1)C(=O)N[C@@H](CC(N)=O)C(=O)N[C@@H](Cc1ccccc1)C(=O)N[C@@H](CO)C(=O)N[C@@H](CC(=O)O)C(=O)N[C@@H](CCCCN)C(=O)O [PepB2],increase of the 50% toxic concentration (TC50) of TcdB2,[3],200 fold
same,protection from cytotoxicity of TcdB2 over a range of toxin concentrations,[3],protects CHO-K1 cells
same,"impact on TcdB cytotoxicity, PepB2 alone at 25 μM",[1],minimal impact
same,"inhibition of TcdB cytotoxicity, PepB2 combined with methyl cholate",[1],strong inhibition
"N=C(N)NCCC[C@H](NC(=O)CN)C(=O)N[C@@H](CCCCN)C(=O)N[C@@H](CCCCN)C(=O)N[C@@H](CCCNC(=N)N)C(=O)N[C@@H](CCCNC(=N)N)C(=O)N[C@@H](CCC(N)=O)C(=O)N[C@@H](CCCNC(=N)N)C(=O)N[C@@H](CCCNC(=N)N)C(=O)N[C@@H](CCCNC(=N)N)C(=O)N1CCC[C@H]1C(=O)N1CCC[C@H]1C(=O)N[C@@H](CCC(N)=O)C(=O)O [TAT, reference compound]",effect of known CPPs on the cytotoxicity of TcdB,[1],did not appear to alter TcdB cytotoxicity
"CC[C@H](C)[C@H](NC(=O)[C@H](CCCCN)NC(=O)[C@H](CCCCN)NC(=O)[C@H](C)NC(=O)[C@H](CC(C)C)NC(=O)[C@H](C)NC(=O)[C@H](C)NC(=O)[C@H](CC(C)C)NC(=O)[C@H](C)NC(=O)[C@H](CCCCN)NC(=O)[C@H](CC(C)C)NC(=O)[C@H](CC(N)=O)NC(=O)[C@@H](NC(=O)[C@H](CCCCN)NC(=O)CNC(=O)[C@H](CC(C)C)NC(=O)[C@H](CC(C)C)NC(=O)[C@H](Cc1ccc(O)cc1)NC(=O)CNC(=O)[C@H](C)N)[C@@H](C)CC)C(=O)N[C@@H](CC(C)C)C(=O)O [transportan 10, reference compound]",effect of known CPPs on the cytotoxicity of TcdB,[1],did not appear to alter TcdB cytotoxicity
DKFSNSNKDKISFGNVTFI [Scramble 9],Anti-TcdB activity of scrambled PepB2 peptides,[1],found to have inhibitory activity
FKDNNSIIFDVKGTNFSSK [Scramble 8],Anti-TcdB activity of scrambled PepB2 peptides,[1],found to have inhibitory activity
KPPIKNLITGFTTIGDDKYYF [Peptide 9],inhibitory activity against TcdB1 (percent of viable cells),[2],weaker inhibitory activity
same,inhibitory activity against TcdB2 (percent of viable cells),[3],weaker inhibitory activity
NVFKGKTISDKISFNFSDK [PepB2-N6K],cell penetrating activities of mutant peptides,[4],cell penetrating activities were reduced
NVFKGNTLANKLSFNFSDK [PepB1-DK5-6GN],cell penetrating activities of mutant peptides,[4],cell penetrating activities were gained
NVFKSNTISDKISFNFSDK [PepB2-G5S],cell penetrating activities of mutant peptides,[4],Cell penetrating activities also remained
same,dextran delivery compared with PepB2,[4],this is not the case for dextran delivery
same,transport of dsRNA into cells compared with PepB2,[4],more efficiently transports dsRNA into cells than PepB2
SFNKMSIDFKDIKKLSLGYIMS [TcdA 1774-1795],TcdB inhibitory activity?,[1],YES
same,dose dependence of inhibition of TcdB,[1],Dose-dependent inhibition
same,inhibitory activity against TcdB toxin,[1],found to have inhibitory activity against TcdB toxin
SNKNFSGIVFTNFDIDKSK [Scramble 12],Anti-TcdB activity of scrambled PepB2 peptides,[1],found to have inhibitory activity
methyl cholate [reference compound],"impact on TcdB cytotoxicity, methyl cholate alone",[1],minimal impact
same,effect on the thermal stability of TcdB,[5],increase the thermal stability of TcdB
